Experimental data from PubChem BioAssay (NCI).
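Growth conditions: 96-well plates. Treatment: test compound, 48 hours, 5 concentrations. Analysis: linear interpolation between bracketing concentrations; unreached endpoints set to highest concentration. TGI marks complete inhibition of growth.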

Tests used:
Test in all cases: NCI tumour cell line growth inhibition, 48 h
P388/ADR leukemia = test system: P388/ADR leukemia
IGROV1 ovarian = test system: IGROV1 ovarian
CAKI-1 renal = test system: CAKI-1 renal
UACC-62 melanoma = test system: UACC-62 melanoma
HOP-92 NSCLC = test system: HOP-92 NSCLC
HOP-18 NSCLC = test system: HOP-18 NSCLC
OVCAR-3 ovarian = test system: OVCAR-3 ovarian
SK-MEL-2 melanoma = test system: SK-MEL-2 melanoma
DMS 273 small cell lung = test system: DMS 273 small cell lung
K-562 leukemia = test system: K-562 leukemia
SN12C renal = test system: SN12C renal
CCRF-CEM leukemia = test system: CCRF-CEM leukemia
KM20L2 colon = test system: KM20L2 colon
P388 leukemia = test system: P388 leukemia
SK-OV-3 ovarian = test system: SK-OV-3 ovarian
OVCAR-8 ovarian = test system: OVCAR-8 ovarian
OVCAR-5 ovarian = test system: OVCAR-5 ovarian
SN12K1 renal = test system: SN12K1 renal
SF-268 CNS = test system: SF-268 CNS
SF-295 CNS = test system: SF-295 CNS
M19-MEL melanoma = test system: M19-MEL melanoma
NCI-H522 lung = test system: NCI-H522 lung
DLD-1 colon = test system: DLD-1 colon
SK-MEL-28 melanoma = test system: SK-MEL-28 melanoma
SW-620 colon = test system: SW-620 colon
HCT-15 colon = test system: HCT-15 colon
NCI-H23 lung = test system: NCI-H23 lung
MOLT-4 leukemia = test system: MOLT-4 leukemia
A498 renal = test system: A498 renal
A549 NSCLC = test system: A549 NSCLC
EKVX NSCLC = test system: EKVX NSCLC
HL-60(TB) leukemia = test system: HL-60(TB) leukemia
UO-31 renal = test system: UO-31 renal
KM12 colon = test system: KM12 colon
RPMI-8226 leukemia = test system: RPMI-8226 leukemia
HCT-116 colon = test system: HCT-116 colon
SNB-78 CNS = test system: SNB-78 CNS
NCI/ADR-RES ovarian = test system: NCI/ADR-RES ovarian
U251 CNS = test system: U251 CNS
MALME-3M melanoma = test system: MALME-3M melanoma
HT29 colon = test system: HT29 colon
OVCAR-4 ovarian = test system: OVCAR-4 ovarian
HCC-2998 colon = test system: HCC-2998 colon
COLO 205 colon = test system: COLO 205 colon
SF-539 CNS = test system: SF-539 CNS
RXF 393 renal = test system: RXF 393 renal
SNB-19 CNS = test system: SNB-19 CNS
SK-MEL-5 melanoma = test system: SK-MEL-5 melanoma
SNB-75 CNS = test system: SNB-75 CNS
MCF7 breast = test system: MCF7 breast
UACC-257 melanoma = test system: UACC-257 melanoma
LOX IMVI melanoma = test system: LOX IMVI melanoma
NCI-H460 lung = test system: NCI-H460 lung

O=C(O)c1ccccc1N=Cc1ccc(N(CCCl)CCCl)cc1
TGI (P388/ADR leukemia): > 100 µM
TGI (IGROV1 ovarian): > 100 µM
TGI (CAKI-1 renal): 34.5 µM
TGI (UACC-62 melanoma): > 100 µM
TGI (HOP-92 NSCLC): > 100 µM
TGI (HOP-18 NSCLC): > 100 µM
TGI (OVCAR-3 ovarian): > 100 µM
TGI (SK-MEL-2 melanoma): > 100 µM
TGI (DMS 273 small cell lung): > 100 µM
TGI (K-562 leukemia): > 100 µM
TGI (SN12C renal): > 100 µM
TGI (CCRF-CEM leukemia): > 100 µM
TGI (KM20L2 colon): > 100 µM
TGI (P388 leukemia): > 100 µM
TGI (SK-OV-3 ovarian): > 100 µM
TGI (OVCAR-8 ovarian): > 100 µM
TGI (OVCAR-5 ovarian): > 100 µM
TGI (SN12K1 renal): > 100 µM
TGI (SF-268 CNS): > 100 µM
TGI (SF-295 CNS): > 100 µM
TGI (M19-MEL melanoma): > 100 µM
TGI (NCI-H522 lung): > 100 µM
TGI (DLD-1 colon): > 100 µM
TGI (SK-MEL-28 melanoma): > 100 µM
TGI (SW-620 colon): > 100 µM
TGI (HCT-15 colon): > 100 µM
TGI (NCI-H23 lung): > 100 µM
TGI (MOLT-4 leukemia): > 100 µM
TGI (A498 renal): > 57.7 µM
TGI (A549 NSCLC): > 100 µM
TGI (EKVX NSCLC): > 100 µM
TGI (HL-60(TB) leukemia): > 100 µM
TGI (UO-31 renal): > 100 µM
TGI (KM12 colon): > 100 µM
TGI (RPMI-8226 leukemia): > 100 µM
TGI (HCT-116 colon): > 100 µM
TGI (SNB-78 CNS): > 100 µM
TGI (NCI/ADR-RES ovarian): > 100 µM
TGI (U251 CNS): > 100 µM
TGI (MALME-3M melanoma): > 100 µM
TGI (HT29 colon): > 100 µM
TGI (OVCAR-4 ovarian): > 100 µM
TGI (HCC-2998 colon): > 100 µM
TGI (COLO 205 colon): > 100 µM
TGI (SF-539 CNS): > 100 µM
TGI (RXF 393 renal): > 73.2 µM
TGI (SNB-19 CNS): > 100 µM
TGI (SK-MEL-5 melanoma): > 100 µM
TGI (SNB-75 CNS): > 100 µM
TGI (MCF7 breast): > 100 µM
TGI (UACC-257 melanoma): > 100 µM
TGI (LOX IMVI melanoma): > 100 µM
TGI (NCI-H460 lung): > 100 µM
